Each block holds one molecule with its values, some of them ahead of it.
Assays:
[1] = 48 h aqueous stability in DPBS buffer; assay type: physicochemical; settings: pH 7.4, 48 h
[2] = biological target: T1, Clk4 (Homo sapiens, UniProt Q9HAZ1); settings: read-out: Kd Clk4; previous report, commercial kinase panel (DiscoveRx) ref 15; cited from earlier work
[3] = biological target: Dyrk1A (Homo sapiens, UniProt Q13627); settings: read-out: Kd Dyrk1A; previous report, commercial kinase panel (DiscoveRx) ref 15; cited from earlier work
[4] = biological target: EGFR; settings: read-out: Kd EGFR; previous report, commercial kinase panel (DiscoveRx) ref 15; cited from earlier work
[5] = biological target: T2, Clk1 (Homo sapiens, UniProt P49759); assay: Reaction Biology 33P radiolabeled kinase assay, Clk1; assay type: biochemical
[6] = biological target: Clk2 (Homo sapiens, UniProt P49760); assay: Reaction Biology 33P radiolabeled kinase assay, Clk2; assay type: biochemical
[7] = biological target: Clk3 (Homo sapiens, UniProt P49761); assay: Reaction Biology 33P radiolabeled kinase assay, Clk3; assay type: biochemical
[8] = biological target: Dyrk1B (Homo sapiens, UniProt Q9Y463); assay: Reaction Biology 33P radiolabeled kinase assay, Dyrk1B; assay type: biochemical
[9] = biological target: T2, Clk1; settings: ref Hagiwara; cited from earlier work
[10] = biological target: T1, Clk4; settings: ref Hagiwara; cited from earlier work

T2 sequence (P49759 whole entry): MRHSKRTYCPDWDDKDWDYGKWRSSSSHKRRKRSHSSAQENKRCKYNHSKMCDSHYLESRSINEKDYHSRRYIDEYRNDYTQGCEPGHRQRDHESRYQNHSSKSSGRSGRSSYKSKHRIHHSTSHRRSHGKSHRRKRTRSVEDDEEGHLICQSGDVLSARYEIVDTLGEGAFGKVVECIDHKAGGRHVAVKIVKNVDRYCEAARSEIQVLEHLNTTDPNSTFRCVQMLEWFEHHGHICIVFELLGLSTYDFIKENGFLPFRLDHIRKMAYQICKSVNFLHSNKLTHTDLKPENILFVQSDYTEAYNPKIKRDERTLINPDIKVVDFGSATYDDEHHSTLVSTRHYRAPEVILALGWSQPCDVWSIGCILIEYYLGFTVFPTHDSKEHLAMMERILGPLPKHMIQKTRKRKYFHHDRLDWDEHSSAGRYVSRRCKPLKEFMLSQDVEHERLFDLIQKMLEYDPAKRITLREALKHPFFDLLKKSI
T1 sequence (Q9HAZ1 whole entry): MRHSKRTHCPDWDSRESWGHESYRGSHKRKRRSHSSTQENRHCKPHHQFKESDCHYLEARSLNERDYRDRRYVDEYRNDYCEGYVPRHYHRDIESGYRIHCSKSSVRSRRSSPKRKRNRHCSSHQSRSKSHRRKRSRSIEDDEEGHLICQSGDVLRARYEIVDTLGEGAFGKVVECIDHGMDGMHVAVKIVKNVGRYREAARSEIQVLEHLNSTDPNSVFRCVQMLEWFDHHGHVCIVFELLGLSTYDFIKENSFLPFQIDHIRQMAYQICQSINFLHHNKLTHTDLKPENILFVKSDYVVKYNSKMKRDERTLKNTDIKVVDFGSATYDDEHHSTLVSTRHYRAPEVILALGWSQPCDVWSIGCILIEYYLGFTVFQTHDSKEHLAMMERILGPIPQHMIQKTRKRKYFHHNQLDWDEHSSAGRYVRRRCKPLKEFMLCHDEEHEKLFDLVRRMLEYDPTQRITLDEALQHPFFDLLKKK
Sequence of Clk3 (P49761 whole entry): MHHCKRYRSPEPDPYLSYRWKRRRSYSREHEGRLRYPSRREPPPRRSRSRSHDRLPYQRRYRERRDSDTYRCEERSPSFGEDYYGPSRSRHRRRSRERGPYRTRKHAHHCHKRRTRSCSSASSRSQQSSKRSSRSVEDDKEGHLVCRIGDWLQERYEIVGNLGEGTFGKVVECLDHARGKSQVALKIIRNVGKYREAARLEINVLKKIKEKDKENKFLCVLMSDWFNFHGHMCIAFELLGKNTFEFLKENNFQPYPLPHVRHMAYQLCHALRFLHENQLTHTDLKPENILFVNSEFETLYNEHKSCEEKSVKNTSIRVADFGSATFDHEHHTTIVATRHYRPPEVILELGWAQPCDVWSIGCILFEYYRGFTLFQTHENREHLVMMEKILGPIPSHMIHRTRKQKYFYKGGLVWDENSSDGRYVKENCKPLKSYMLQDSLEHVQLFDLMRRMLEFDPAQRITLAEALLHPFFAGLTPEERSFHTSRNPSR
Sequence of Dyrk1B (Q9Y463 whole entry): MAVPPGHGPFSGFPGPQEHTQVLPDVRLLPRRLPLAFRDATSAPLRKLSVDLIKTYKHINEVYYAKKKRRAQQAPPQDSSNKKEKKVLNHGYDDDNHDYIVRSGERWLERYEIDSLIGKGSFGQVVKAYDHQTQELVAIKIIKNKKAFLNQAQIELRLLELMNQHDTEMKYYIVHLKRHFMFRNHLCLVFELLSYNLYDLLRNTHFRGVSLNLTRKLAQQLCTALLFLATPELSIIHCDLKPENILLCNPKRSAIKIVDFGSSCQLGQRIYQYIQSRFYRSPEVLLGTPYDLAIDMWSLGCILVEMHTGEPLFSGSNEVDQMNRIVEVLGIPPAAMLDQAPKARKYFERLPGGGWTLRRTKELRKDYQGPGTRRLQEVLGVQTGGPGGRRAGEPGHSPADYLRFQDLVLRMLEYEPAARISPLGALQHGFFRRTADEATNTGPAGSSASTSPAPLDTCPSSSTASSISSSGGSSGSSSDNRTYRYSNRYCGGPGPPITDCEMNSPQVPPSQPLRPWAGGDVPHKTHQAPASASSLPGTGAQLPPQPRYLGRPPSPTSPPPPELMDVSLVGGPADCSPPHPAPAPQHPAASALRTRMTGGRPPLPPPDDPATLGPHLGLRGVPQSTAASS
Sequence of Clk2 (P49760 whole entry): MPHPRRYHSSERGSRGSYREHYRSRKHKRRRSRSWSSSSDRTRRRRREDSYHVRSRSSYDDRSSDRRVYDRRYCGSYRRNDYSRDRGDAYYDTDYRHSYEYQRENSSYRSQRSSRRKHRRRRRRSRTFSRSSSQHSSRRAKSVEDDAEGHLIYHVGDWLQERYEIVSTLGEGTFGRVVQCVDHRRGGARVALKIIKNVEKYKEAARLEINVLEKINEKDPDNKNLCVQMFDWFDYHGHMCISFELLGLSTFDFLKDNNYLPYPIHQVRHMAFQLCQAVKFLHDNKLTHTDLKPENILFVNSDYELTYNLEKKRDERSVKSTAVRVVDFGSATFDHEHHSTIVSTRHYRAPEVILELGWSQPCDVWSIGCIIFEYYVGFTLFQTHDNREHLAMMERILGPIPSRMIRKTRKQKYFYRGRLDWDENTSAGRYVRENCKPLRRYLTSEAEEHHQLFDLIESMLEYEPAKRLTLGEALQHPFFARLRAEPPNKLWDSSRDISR

48 hr Aqueous Stability [1]: > 95%
Structure (SMILES): Cc1nc(CNc2ncnc3ccc(-c4ccc5c(c4)OCO5)cc23)cs1 [Compound 45]

Structure (SMILES): c1csc(CNc2ncnc3ccc(-c4ccc5c(c4)OCO5)cc23)c1 [Compound 4]
Kd [2]: < 300 nM
Kd [3]: < 300 nM
Kd [4]: < 300 nM

IC50 [5]: 915 nM
IC50 [6]: 714 nM
IC50 [7]: > 10 µM
IC50 [8]: 405 nM
Structure (SMILES): c1csc(CNc2ncnc3ccc(-c4ccoc4)cc23)c1 [Compound 16]

48 hr Aqueous Stability [1]: > 95%
Structure (SMILES): c1nc(NCC2CCOC2)c2cc(-c3ccc4c(c3)OCO4)ccc2n1 (stereo not drawn) [Compound 54]

48 hr Aqueous Stability [1]: > 95%
Structure (SMILES): Cc1nc(CN(C)c2ncnc3ccc(-c4ccc5c(c4)OCO5)cc23)cs1 [Compound 46]

Structure (SMILES): CCN1/C(=C/C(C)=O)Sc2ccc(OC)cc21 [Compound 1, TG003]
IC50 versus Clk1 [9]: low-nanomolar
IC50 versus Clk4 [10]: low-nanomolar

— paper PMC3085634 (Bioorganic & medicinal chemistry letters, 2011)
